The values below come from ChEMBL document CHEMBL3870312, “Rational modification of donepezil as multifunctional acetylcholinesterase inhibitors for the treatment of Alzheimer's disease” (Eur J Med Chem, 2016).

Activity calls are given as the source filed them. The calls are words filed in the database; no cut-off is given here.

Data set [1] relates to Mus musculus. The experiment in a line: Hepatotoxicity in Kunming mouse assessed as distinct fatty degeneration in hepatocytes at 3 mg/kg, po for 6 days by hematoxylin and eosin-staining based microscopic analysis. Type of data set: toxicity, organism-based. Particulars: in vivo, 144 h.
In data set [2] the test system is Mus musculus. The data set can be described thus: Hepatotoxicity in Kunming mouse assessed as area of necrosis in hepatocytes at 3 mg/kg, po for 6 days by hematoxylin and eosin-staining based microscopic analysis. Type of data set: toxicity, organism-based, Hepatocyte. Particulars: 144 h.
Data set [3] deals with Mus musculus. The data set can be described thus: Hepatotoxicity in Kunming mouse assessed as increase in number of inflammatory cells in portal fields of liver at 3 mg/kg, po for 6 days by hematoxylin and eosin-staining based microscopic analysis. The format is toxicity, organism-based. To be noted: in vivo, 144 h.
Data set [4] relates to Mus musculus. The experiment in a line: Toxicity in scopolamine-induced memory deficit Kunming mouse model assessed as change in body weight at 2.5 to 10 mg/Kg, po for 7 days. Type of data set: organism-based. Particulars: in vivo, 168 h.
Data set [5] deals with T1, Acetylcholinesterase (Homo sapiens, UniProt P22303). The experiment in a line: Mixed-type inhibition of human erythrocyte AChE preincubated for 15 mins followed by addition of acetylthiocholine iodide as substrate in varying concentrations by Lineweaver-Burk reciprocal plot analysis.
Data set [6] can be described thus: Inhibition of copper-mediated aggregation of amyloid beta (1 to 42 residues) (unknown origin) incubated for 46 to 48 hrs by thioflavin-T binding assay. The format is physicochemical.
In data set [7] the test system is Mus musculus. The data set can be described thus: Hepatotoxicity in scopolamine-induced memory deficit Kunming mouse model assessed as increase in alanine aminotransferase levels at 10 mg/kg, po for 6 days. Type of data set: toxicity, organism-based. To be noted: in vivo, 144 h.
The next data set is filed under the species Rattus norvegicus. The experiment in a line: Cytotoxicity against rat PC12 cells assessed as reduction in cell viability at 3.125 to 50 uM after 24 hrs by MTT assay. Particulars: pc-12, 24 h. The format is toxicity.
The test system of data set [8] is PC-12. The experiment in a line: Neuroprotective activity against amyloid beta (1 to 42 residues) induced cell death in rat PC12 cells by phase-contrast microscopy analysis. The format is functional, cell-based.
Data set [9] concerns the target Cholinesterase (Equus caballus, UniProt P81908).
Description: Inhibition of equine serum BuChE using s-butyrylthiocholine iodide as substrate preincubated for 5 mins followed by substrate addition measured up to 3 mins by Ellman's method
In data set [10] the test system is Mus musculus. The data set can be described thus: Cognitive enhancement activity in po dosed scopolamine-induced memory deficit Kunming mouse model assessed as increase in step-through latency time treated for 1 hr before training followed by scopolamine challenge 30 mins before training measured 24 hrs after training trial by passive avoidance test. Type of data set: functional, organism-based.

The nature of data set [11]: Metal chelating activity of the compound assessed as formation of ferric complex at 50 uM by fluorescence spectrophotometry. The format is physicochemical.
For data set [12], the system named is Mus musculus. The data set can be described thus: Toxicity in scopolamine-induced memory deficit Kunming mouse model assessed as effect on survival at 2.5 to 10 mg/Kg, po for 7 days. The format is organism-based. To be noted: in vivo, 168 h.
The target in data set [13] is Cholinesterase (Homo sapiens, UniProt P06276).
Description: Inhibition of human serum BuChE using s-butyrylthiocholine iodide as substrate preincubated for 5 mins followed by substrate addition measured up to 3 mins by Ellman's method
Data set [14] has as its target Acetylcholinesterase (Electrophorus electricus, UniProt O42275).
Description: Inhibition of electric eel AChE using acetylthiocholine iodide as substrate preincubated for 5 mins followed by substrate addition measured up to 3 mins by Ellman's method
The subject of data set [15] is Mus musculus. The experiment in a line: Hepatotoxicity in scopolamine-induced memory deficit Kunming mouse model assessed as increase in number of inflammatory cells in portal fields of liver at 10 mg/Kg, po for 6 days by hematoxylin and eosin-staining based microscopic analysis. The format is toxicity, organism-based. Particulars: in vivo, 144 h.
Data set [16] is described as follows: Metal chelating activity assessed as mole fraction of compound required to show 1:1 stoichiometry for Cu2+-compound complex at 10 uM by UV-vis spectrometry. Type of data set: physicochemical.
The nature of the next data set: in vitro. To be noted: PAMPA.
Data set [17] can be described thus: Metal chelating activity of the compound assessed as formation of copper complex at 50 uM by fluorescence spectrophotometry. Type of data set: physicochemical.
Data set [18] is described as follows: Metal chelating activity of the compound assessed as formation of copper complex at 10 uM by UV-vis spectrometry. Type of data set: physicochemical.
The test system of data set [19] is Mus musculus. The experiment in a line: Hepatotoxicity in scopolamine-induced memory deficit Kunming mouse model assessed as distinct fatty degeneration in hepatocytes at 10 mg/Kg, po for 6 days by hematoxylin and eosin-staining based microscopic analysis. The format is toxicity, organism-based. To be noted: in vivo, 144 h.
Data set [20] deals with Mus musculus. The data set can be described thus: Hepatotoxicity in scopolamine-induced memory deficit Kunming mouse model assessed as area of necrosis in hepatocytes at 10 mg/Kg, po for 6 days by hematoxylin and eosin-staining based microscopic analysis. Type of data set: toxicity, organism-based, Hepatocyte. Particulars: 144 h.
Data set [21] has as its system PC-12. The experiment in a line: Neuroprotective activity against Cu2+-amyloid beta (1 to 42 residues) induced cell death in rat PC12 cells assessed as increase in cell viability at 2.5 to 20 uM preincubated for 24 hrs followed by Cu2+-amyloid beta (1 to 42 residues) addition measured after 24 hrs by MTT assay. The format is functional, cell-based.
The target of data set [22] is Amyloid-beta precursor protein (Homo sapiens) (UniProt P05067). Particulars: at 20 µM.
Description: Inhibition of self-mediated aggregation of amyloid beta (1 to 42 residues) (unknown origin) at 20 uM incubated for 46 to 48 hrs by Thioflavin T binding assay relative to control
Data set [23] deals with PC-12. The data set can be described thus: Neuroprotective activity against amyloid beta (1 to 42 residues) induced cell death in rat PC12 cells assessed as increase in cell viability at 10 to 20 uM preincubated for 24 hrs followed by amyloid beta (1 to 42 residues) addition measured after 24 hrs by MTT assay. Type of data set: functional, cell-based. (In general: Tetrazolium dyes change colour on reduction, which living cells bring about.)

In data set [24] the test system is Mus musculus. The experiment in a line: Hepatotoxicity in scopolamine-induced memory deficit Kunming mouse model assessed as increased aspartate aminotransferase at 10 mg/Kg, po for 6 days. The format is toxicity, organism-based. To be noted: in vivo, 144 h.
Data set [25] has as its target T1, Acetylcholinesterase.
Description: Inhibition of human erythrocytes AChE using acetylthiocholine iodide as substrate preincubated for 5 mins followed by substrate addition measured up to 3 mins by Ellman's method
Data set [26] has as its system PC-12. The experiment in a line: Neuroprotective activity against Cu2+-amyloid beta (1 to 42 residues) induced cell death in rat PC12 cells by phase-contrast microscopy analysis. The format is functional, cell-based.
Data set [27] is described as follows: Metal chelating activity assessed as Zn2+-compound complex formation at 50 uM by fluorescence spectrophotometry. Type of data set: physicochemical.

T1 sequence (P22303 whole entry, the tested form may be a part): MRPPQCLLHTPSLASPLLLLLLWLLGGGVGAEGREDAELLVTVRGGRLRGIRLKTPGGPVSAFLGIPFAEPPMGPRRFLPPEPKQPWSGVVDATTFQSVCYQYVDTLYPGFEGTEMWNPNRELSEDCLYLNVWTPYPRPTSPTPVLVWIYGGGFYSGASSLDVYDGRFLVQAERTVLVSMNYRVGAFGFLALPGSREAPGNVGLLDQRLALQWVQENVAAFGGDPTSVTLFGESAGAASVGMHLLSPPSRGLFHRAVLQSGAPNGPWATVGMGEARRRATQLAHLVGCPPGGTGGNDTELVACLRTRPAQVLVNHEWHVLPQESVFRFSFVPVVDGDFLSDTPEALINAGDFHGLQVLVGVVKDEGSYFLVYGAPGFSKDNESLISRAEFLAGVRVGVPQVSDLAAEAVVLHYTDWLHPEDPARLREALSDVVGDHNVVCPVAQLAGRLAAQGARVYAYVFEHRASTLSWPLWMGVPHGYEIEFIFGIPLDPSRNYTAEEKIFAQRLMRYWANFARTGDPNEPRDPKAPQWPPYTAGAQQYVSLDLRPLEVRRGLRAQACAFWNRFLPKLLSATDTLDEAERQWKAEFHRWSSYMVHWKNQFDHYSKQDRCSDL
Sequence of Acetylcholinesterase (Electrophorus electricus, UniProt O42275) (O42275 whole entry): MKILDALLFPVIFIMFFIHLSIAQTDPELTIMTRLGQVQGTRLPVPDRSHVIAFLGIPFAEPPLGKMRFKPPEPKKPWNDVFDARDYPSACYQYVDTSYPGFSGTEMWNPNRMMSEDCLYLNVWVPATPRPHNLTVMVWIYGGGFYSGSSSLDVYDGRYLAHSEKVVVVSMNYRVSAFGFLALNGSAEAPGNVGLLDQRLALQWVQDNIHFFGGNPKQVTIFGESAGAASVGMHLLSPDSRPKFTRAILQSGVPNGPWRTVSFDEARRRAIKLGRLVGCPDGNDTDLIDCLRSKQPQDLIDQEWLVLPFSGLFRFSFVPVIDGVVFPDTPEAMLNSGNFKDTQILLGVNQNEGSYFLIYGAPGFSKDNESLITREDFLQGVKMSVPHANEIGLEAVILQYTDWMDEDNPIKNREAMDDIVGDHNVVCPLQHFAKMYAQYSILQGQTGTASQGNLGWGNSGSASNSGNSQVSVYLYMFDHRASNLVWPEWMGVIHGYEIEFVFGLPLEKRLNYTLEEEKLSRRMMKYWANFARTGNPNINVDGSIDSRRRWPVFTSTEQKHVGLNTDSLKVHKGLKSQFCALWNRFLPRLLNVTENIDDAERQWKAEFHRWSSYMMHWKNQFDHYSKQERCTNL
Sequence of Amyloid-beta precursor protein (Homo sapiens) (P05067 whole entry, the tested form may be a part): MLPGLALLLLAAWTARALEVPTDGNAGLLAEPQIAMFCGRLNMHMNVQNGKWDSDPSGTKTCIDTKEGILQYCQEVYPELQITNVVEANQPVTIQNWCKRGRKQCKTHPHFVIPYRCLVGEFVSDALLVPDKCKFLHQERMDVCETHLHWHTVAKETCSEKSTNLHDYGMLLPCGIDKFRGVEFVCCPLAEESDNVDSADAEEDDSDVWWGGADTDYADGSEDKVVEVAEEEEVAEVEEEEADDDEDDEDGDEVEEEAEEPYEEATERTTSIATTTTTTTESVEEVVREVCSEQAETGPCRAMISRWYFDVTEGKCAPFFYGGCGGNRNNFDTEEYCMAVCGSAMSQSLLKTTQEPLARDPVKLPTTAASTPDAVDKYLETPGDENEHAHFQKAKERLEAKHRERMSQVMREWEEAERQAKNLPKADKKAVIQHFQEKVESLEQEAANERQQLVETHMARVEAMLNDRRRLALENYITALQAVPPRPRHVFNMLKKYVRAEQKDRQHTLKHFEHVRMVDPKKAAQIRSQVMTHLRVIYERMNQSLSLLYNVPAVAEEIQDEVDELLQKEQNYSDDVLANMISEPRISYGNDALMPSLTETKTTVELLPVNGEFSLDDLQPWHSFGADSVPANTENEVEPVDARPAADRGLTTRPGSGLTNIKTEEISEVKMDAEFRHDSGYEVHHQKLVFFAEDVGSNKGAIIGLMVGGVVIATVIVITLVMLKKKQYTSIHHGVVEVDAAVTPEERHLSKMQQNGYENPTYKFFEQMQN
Sequence of Cholinesterase (Equus caballus, UniProt P81908) (P81908 whole entry): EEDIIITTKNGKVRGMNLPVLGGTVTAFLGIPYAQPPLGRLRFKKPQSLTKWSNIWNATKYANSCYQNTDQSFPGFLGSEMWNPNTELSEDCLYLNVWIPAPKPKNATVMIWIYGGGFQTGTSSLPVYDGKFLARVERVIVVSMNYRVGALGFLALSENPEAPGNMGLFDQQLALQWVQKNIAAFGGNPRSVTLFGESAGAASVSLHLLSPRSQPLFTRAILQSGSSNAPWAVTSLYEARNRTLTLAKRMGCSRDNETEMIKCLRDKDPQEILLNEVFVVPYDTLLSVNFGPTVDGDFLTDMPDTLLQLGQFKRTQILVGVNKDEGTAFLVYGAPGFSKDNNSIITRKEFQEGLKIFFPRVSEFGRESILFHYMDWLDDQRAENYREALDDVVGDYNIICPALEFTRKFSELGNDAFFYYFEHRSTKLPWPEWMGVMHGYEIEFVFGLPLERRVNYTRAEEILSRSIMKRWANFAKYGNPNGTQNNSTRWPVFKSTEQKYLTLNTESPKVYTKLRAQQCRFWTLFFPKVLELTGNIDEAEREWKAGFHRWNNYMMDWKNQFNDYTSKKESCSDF
Sequence of Cholinesterase (Homo sapiens, UniProt P06276) (P06276 whole entry): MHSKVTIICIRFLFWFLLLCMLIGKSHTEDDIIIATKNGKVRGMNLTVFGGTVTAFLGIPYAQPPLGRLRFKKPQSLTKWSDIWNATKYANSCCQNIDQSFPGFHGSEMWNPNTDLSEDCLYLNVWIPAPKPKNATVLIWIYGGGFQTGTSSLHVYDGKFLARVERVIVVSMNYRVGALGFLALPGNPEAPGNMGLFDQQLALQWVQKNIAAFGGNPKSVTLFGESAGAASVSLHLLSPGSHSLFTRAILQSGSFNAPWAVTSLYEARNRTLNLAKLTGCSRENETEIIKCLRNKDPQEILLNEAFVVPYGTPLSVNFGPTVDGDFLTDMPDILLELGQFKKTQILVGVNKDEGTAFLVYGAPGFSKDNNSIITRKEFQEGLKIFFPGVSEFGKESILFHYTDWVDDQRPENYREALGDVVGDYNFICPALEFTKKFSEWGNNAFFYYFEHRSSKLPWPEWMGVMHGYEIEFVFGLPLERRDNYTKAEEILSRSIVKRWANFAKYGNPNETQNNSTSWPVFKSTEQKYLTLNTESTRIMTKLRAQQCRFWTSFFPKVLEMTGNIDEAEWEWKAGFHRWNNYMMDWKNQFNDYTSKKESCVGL
Description for in vitro: Effective permeability of the compound after 18 hrs by PAMPA

Take `CN1[C@@H]2C[C@@H](OC(=O)[C@H](CO)c3ccccc3)C[C@H]1[C@@H]1O[C@H]12`: the Activity entry in the data set with Mus musculus [1], with Mus musculus [2] and in the data set with Mus musculus [3] was “Non-Toxic” each time.
As for `COc1cc2c(cc1OC)C(=O)C(CC1CCN(Cc3cccc(C)n3)CC1)C2` (centres undefined), the Activity entry was “Non-Toxic” with Mus musculus [4]; “Non-Toxic” in the data set on Mus musculus [7]; “Non-Toxic” in the data set filed under Rattus norvegicus; “Dose-dependent effect” in the data set with Mus musculus [10]; “Active” in data set [11]; “Non-Toxic” with Mus musculus [12]. The Activity entry in the data set with Mus musculus [15] was “Non-Toxic”; in [16] it was 0.9 molar ratio; in data set [17], “Active”; in data set [18] it was “Active”; with Mus musculus [19], “Non-Toxic”; in the data set with Mus musculus [20], “Non-Toxic”. The Activity entry is reported as “Non-Toxic” with Mus musculus [24] and “Active” in [27]. For the same compound, the inhibition entry on Acetylcholinesterase [5] was “Active”. The “inhibition (INH)” value in [6] was “Dose-dependent effect”. Also, the result in the data set with PC-12 [8], in the data set with PC-12 [21], with PC-12 [23] and with PC-12 [26] was Active. The IC50 at Cholinesterase [9] worked out at 20.5 µM; against Cholinesterase [13], 65.7 µM; on Acetylcholinesterase [14], 0.085 µM; at Acetylcholinesterase [25], 0.073 µM. Besides, in “in vitro”, the Papp at 18 h stood at 9.7 ×10⁻⁶ cm/s. Moreover, the inhibition in data set [22] is 18.5%.

What is called inhibition is the relative decrease from the control value, in per cent. Broadly, the IC50 is the point on the concentration scale where inhibition reaches its midpoint. What is called Papp is a coefficient for how fast a substance crosses the barrier. Read a high Papp as ready permeation.
